US7094909B2, “HIV protease inhibitors, compositions containing the same, their pharmaceutical uses and materials for their synthesis” (priority 2001, dated 2006)
pEC50, pKi: −log10 of the molar value. Read-outs that look alike come from different tables or passages of the source.

How the values were obtained:
[1] = biological target: T1, HIV-1 protease (Q7S mutant form) (Human immunodeficiency virus type 1 group M subtype B, UniProt P04585, Q495S); assay: HIV-1 Protease RET assay; type: biochemical; conditions: for Ki: Ave. Ki (nM), RET assay, Q7S enzyme, Morrison tight binding fit; for pKi: Ki, unit inferred
T1 construct: made in house
Summary of the method: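 Q7S HIV-1 protease, refolded from urea, 2 nM active dimer with 5 μM EDANS/DABCYL peptide cleaved at Tyr-Pro; fluorescence 340/490 nm. 12 min at 37 °C in 0.1M sodium acetate pH 4.8, 1M NaCl, 10% DMSO. Ki from Morrison tight-binding fit.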

[2] = system: HIV-1 (HIV-1 RF, HIV-1 NL4-3) in CEM-SS / MT-2 cells; assay: Cytopathic effect (CPE) inhibition assay (XTT/MTT dye reduction); type: cell-based
Summary of the method: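 CEM-SS or MT-2 cells were infected with HIV-1 RF or NL4-3 (moi 0.025–0.819) and plated at 2×10^4 cells/well with half-log compound dilutions for 6 days. Viability was read by XTT formazan at 450 nm after 4 h. EC50 restores formazan to 50% of uninfected untreated cells, CC50 halves it in uninfected cells, and TI = CC50/EC50.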

[3] = Human immunodeficiency virus 1, NL43, read-out: Ave CPE EC50
[4] = Human immunodeficiency virus 1, NL43, unit inferred, read-out: EC50

Compound	Ki [1] [nM]	pEC50 [2, 3]	pKi [1]	pEC50 [2, 4]	EC50 ([2]; Human immunodeficiency virus 1, NL43, read-out: Ave CPE EC50 (mM)) [µM]
Cc1ccccc1CNC(=O)[C@H]1N(C(=O)[C@@H](O)[C@H](Cc2ccccc2)NC(=O)c2cccc3[nH]ccc23)CSC1(C)C [Example B8, 1H-Indole-4-carboxylic acid {(1S,2S)-1-benzyl-3-[(R)-5,5-dimethyl-4-(2-methyl-benzylcarbamoyl)-thiazolidin-3-yl]-2-hydroxy-3-oxo-propyl}-amide]	0.63	6.32			
Cc1ccccc1CNC(=O)[C@H]1N(C(=O)[C@@H](O)[C@H](Cc2ccccc2)NC(=O)O[C@@H]2CCS[C@@H]2C(C)C)CSC1(C)C [Example B5, {(1S,2S)-1-Benzyl-3-[(R)-5,5-dimethyl-4-(2-methyl-benzylcarbamoyl)-thiazolidin-3-yl]-2-hydroxy-3-oxo-propyl}-carbamic acid (R)-2-isopropyl-tetrahydro-thiophen-3-yl ester]	1.2	6.50			
Cc1ccccc1CNC(=O)[C@H]1N(C(=O)[C@@H](O)[C@H](Cc2ccccc2)NC(=O)OC2CC3CCC2C3)CSC1(C)C (some centres unmarked)			8.03	5.54	
CC1(C)SCN(C(=O)[C@@H](O)[C@H](Cc2ccccc2)NC(=O)CSc2nc[nH]n2)[C@@H]1C(=O)N[C@H]1CCc2ccccc21			8.41	5.91	
C#CCNC(=O)[C@H]1N(C(=O)[C@@H](O)[C@H](Cc2ccccc2)NC(=O)c2cccc3c2CCN3)CSC1(C)C [Example B34, 2,3-Dihydro-1H-indole-4-carboxylic acid [(1S,2S)-1-benzyl-3-((R)-5,5-dimethyl-4-prop-2-ynylcarbamoyl-thiazoldin-3-yl)-2-hydroxy-3-oxo-propyl]-amide]	1.2	6.41			
Cc1c(O)cccc1C(=O)N[C@@H](Cc1ccccc1)[C@H](O)C(=O)N1CSC(C)(C)[C@H]1C(=O)N[C@H]1CC1c1ccccc1 (some centres unmarked)			7.76	5.88	
Cc1c(O)cccc1C(=O)N[C@@H](Cc1ccccc1)[C@H](O)C(=O)N1CSC(C)(C)[C@H]1C(=O)NC1CCC(C(C)(C)C)CC1 (some centres unmarked)			7.59	5.91	
Cc1ccccc1CNC(=O)[C@H]1N(C(=O)[C@@H](O)[C@H](Cc2ccccc2)NC(=O)OCc2ccccc2)CSC1(C)C			8.85	5.37	
Cc1c(F)cccc1C(=O)N[C@@H](Cc1ccccc1)[C@H](O)C(=O)N1CSC(C)(C)[C@H]1C(=O)N[C@@H]1C=CCCC1 [Example B81, (R)-3-((2S,3S)-3-{[1-(3-Fluoro-2-methyl-phenyl)-methanoyl]-amino}-2-hydroxy-4-phenyl-butanoyl)-5,5-dimethyl-thiazolidine-4-carboxylic acid (S)-cyclohex-2-enylamide]	0.35	6.06			
Cc1cccc(C)c1OCC(=O)N[C@@H](Cc1ccccc1)[C@H](O)C(=O)N1CSC(C)(C)[C@H]1C(=O)NCc1ccccc1Cl			≥ 10.00	5.81	
Cc1ccccc1CNC(=O)[C@H]1N(C(=O)[C@@H](O)[C@H](Cc2ccccc2)NC(=O)N2CC[C@@H](O)C2)CSC1(C)C [Example B3, 3-(2-hydroxy-3-{[1-(3-hydroxy-pyrrolidin-yl)-methanoyl]-amino}-4-phenyl-butanoyl)-5,5-dimethyl-thiazolidine-4-carboxylic acid-2-methyl-benzylamide]	2.5				0.905
Cc1ccccc1CNC(=O)[C@H]1N(C(=O)[C@@H](O)[C@H](Cc2ccccc2)NC(=O)COc2cccc3ccccc23)CSC1(C)C			8.24	≤ 5.49	
Cc1ccccc1CNC(=O)[C@H]1N(C(=O)[C@@H](O)[C@H](Cc2ccccc2)NC(=O)O[C@H]2CCOC2)COC1(C)C [Example C47, {(1S,2S)-1-Benzyl-3-[(S)-5,5-dimethyl-4-(2-methyl-benzylcarbamoyl)-oxazolidin-3-yl]-2-hydroxy-3-oxo-propyl}-carbamic acid (S)-(tetrahydro-furan-3-yl)ester]	1.4	5.86			
Cc1c(O)cccc1C(=O)N[C@@H](Cc1ccccc1)[C@H](O)C(=O)N1CSC(C)(C)[C@H]1C(=O)NCc1csc2ccc(Cl)cc12 [Example A24, (R)-3-((2S,3S)-2-Hydroxy-3-{[1-(3-hydroxy-2-methyl-phenyl)-methanoyl]-amino}-4-phenyl-butanoyl)-5,5-dimethyl-thiazolidine-4-carboxylic acid (5-chloro-benzo[b]thiophen-3-ylmethyl)-amide]	0.52	6.33			
Cc1c(O)cccc1C(=O)N[C@@H](Cc1ccccc1)[C@H](O)C(=O)N1CSC(C)(C)[C@H]1C(=O)NCc1cc2ccccc2o1 [Example A62, (R)-3-[(2S,3S)-2-Hydroxy-3-(3-hydroxy-2-methyl-benzoylamino)-4-phenyl-butyryl]-5,5-dimethyl-thiazolidine-4-carboxylic acid (benzofuran-2-ylmethyl)-amide]	9.6	5.65			
Cc1ccccc1CNC(=O)[C@H]1N(C(=O)[C@@H](O)[C@H](Cc2ccccc2)NC(=O)[C@@H](NC(=O)c2ccccn2)C(C)C)CSC1(C)C			≥ 10.00	6.90	

Compound	Ki [1] [nM]	pEC50 [2, 3]	pKi [1]	pEC50 [2, 4]	EC50 ([2]; Human immunodeficiency virus 1, NL43, read-out: Ave CPE EC50 (mM)) [µM]
C=CC(C)COC(=O)NC(Cc1ccccc1)[C@H](O)C(=O)N1CSC(C)(C)C1C(=O)NCc1ccccc1C (some centres unmarked)			7.82	≤ 5.49	
Cc1c(O)cccc1C(=O)N[C@@H](Cc1ccccc1)[C@H](O)C(=O)N1CSC(C)(C)[C@H]1C(=O)N[C@@H]1CCCc2ncccc21 [Example A43, 3-[2-Hydroxy-3-(3-hydroxy-2-methyl-benzoylamino)-4-phenyl-butyryl]-5,5-dimethyl-thiazolidine-4-carboxylic acid (5,6,7,8-tetrahydro-quinolin-5-yl)-amide]	2.6	6.27			
Cc1cccc(C)c1OCC(=O)N[C@@H](Cc1ccccc1)[C@H](O)C(=O)N1CSC(C)(C)[C@H]1C(=O)NCc1c(F)cccc1F			9.49	5.72	
CCCOC(=O)N[C@@H](Cc1ccccc1)[C@H](O)C(=O)N1CSC(C)(C)[C@H]1C(=O)NCc1ccccc1C			8.96	5.81	
Cc1ccccc1CNC(=O)[C@H]1N(C(=O)[C@@H](O)[C@H](Cc2ccccc2)NC(=O)COc2ccccc2C)CSC1(C)C			9.05	5.81	
Cc1ccccc1CNC(=O)[C@H]1N(C(=O)[C@@H](O)[C@H](Cc2ccccc2)NC(=O)c2cccc3c2CCCN3)CSC1(C)C [Example B2, 1,2,3,4-Tetrahydro-quinoline-5-carboxylic acid {(1S,2S)-1-benzyl-3-[(R)-5,5-dimethyl-4-(2-methyl-benzylcarbamoyl)-thiazolidin-3-yl]-2-hydroxy-3-oxo-propyl}-amide]	0.35	7.06			
C=CCNC(=O)[C@H]1N(C(=O)[C@@H](O)[C@H](Cc2ccccc2)NC(=O)c2cccc3[nH]ncc23)CSC1(C)C [Example B24, 1-H-indazole-4-carboxylic acid [3-(4-allylcarbamoyl-5,5-dimethyl-thiazolidin-3-yl)-1-benzyl-2-hydroxy-3-oxo-propyl]-amide]	8.3	6.29			
Cc1cccc(C)c1OCC(=O)N[C@@H](Cc1ccccc1)[C@H](O)C(=O)N1CSC(C)(C)[C@H]1C(=O)NCC1CC1 [Example B27, (R)-3-{(2S,3S)-3-[2-(2,6-Dimethyl-phenoxy)-ethanoylamino]-2-hydroxy-4-phenyl-butanoyl}-5,5-dimethyl-thiazolidine-4-carboxylic acid cyclopropylmethyl-amide]	0.5	6.30			
Cc1c(O)cccc1C(=O)N[C@@H](Cc1ccccc1)[C@H](O)C(=O)N1CSC(C)(C)[C@H]1C(=O)N1CCOCC1 [Example A30]	10.9	6.23			
C#CCOC(=O)N[C@@H](Cc1ccccc1)[C@H](O)C(=O)N1CSC(C)(C)[C@H]1C(=O)NCc1ccncc1 [Example B67, ((1S,2S)-1-Benzyl-3-{5,5-dimethyl-4-[(pyridin-4-ylmethyl)-carbamoyl]-thiazolidin-3-yl}-2-hydroxy-3-oxo-propyl)-carbamic acid prop-2-ynyl ester]	11.4	< 5.49			
Cc1ccccc1CNC(=O)C1N(C(=O)[C@@H](O)[C@H](Cc2ccccc2)NC(=O)CSc2nccs2)CSC1(C)C (some centres unmarked)			8.16	5.81	
Cc1ccccc1CNC(=O)C1N(C(=O)[C@@H](O)[C@H](Cc2ccccc2)NC(=O)CSc2nncn2C)CSC1(C)C (some centres unmarked)			7.09	≤ 5.49	
CC1(C)SCN(C(=O)[C@@H](O)[C@H](Cc2ccccc2)NC(=O)[C@@H]2CCCO2)[C@@H]1C(=O)NCc1ccco1 [Example B40, (R)-3-{(2S,3S)-2-Hydroxy-4-phenyl-3-[((S)-1-tetrahydro-furan-2-yl-methanoyl)-amino]-butanoyl}-5,5-dimethyl-thiazolidine-4-carboxylic acid (furan-2-ylmethyl)-amide]	15.1	< 6.00			
CCCNC(=O)[C@H]1N(C(=O)[C@@H](O)[C@H](Cc2ccccc2)NC(=O)c2cc(C)cc(O)c2C)CC(F)(F)C1(C)C [Example D4, (S)-4,4-Difluoro-1-[(2S,3S)-2-hydroxy-3-(3-hydroxy-2,5-dimethyl-benzoylamino)-4-phenyl-butyryl]-3,3-dimethyl-pyrrolidine-2-carboxylic acid propylamide]	< 0.1	8.05			
Cc1ccccc1CNC(=O)[C@H]1N(C(=O)[C@@H](O)[C@H](Cc2ccccc2)NC(=O)NCc2ccccc2)CSC1(C)C [Example B59, 3-[(2S,3S)-3-(3-Benzyl-ureido)-2-hydroxy-4-phenyl-butyryl]-5,5-dimethyl-thiazolidine-4-carboxylic acid 2-methyl-benzylamide]	2.1	5.74			
